Results as given in US20100120700A1, “METHODS AND COMPOSITIONS FOR TREATING CERVICAL CANCER” (priority 2000, published 2010).
“And” between values parts separate entries of the source, which are not always exact repeats. Identical values can stand only once.

Legend:
Test in all cases: G assay PDZ-PL binding
Conditions in all cases: peptide 10 uM, protein 5
Magi2 domain 5 = molecular target: T1, Magi2 domain 5 (Homo sapiens, UniProt Q86UL8)
T1 construct: made in house; host or cells: E. coli (DH5alpha, BL21 or JM109), vector pGEX-3X
T1 sequence (Q86UL8 1134-1231): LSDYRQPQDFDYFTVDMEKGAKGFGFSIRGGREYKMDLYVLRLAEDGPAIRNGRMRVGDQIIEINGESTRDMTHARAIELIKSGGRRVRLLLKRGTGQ
Experimental: (§1) (1) A PDZ-domain polypeptide is bound to a surface, e.g. a protein binding surface. In a preferred embodiment, a GST/PDZ fusion protein containing one or more PDZ domains is bound to a polystyrene 96-well plate. […] In one embodiment, the GST/PDZ fusion protein is bound via an anti-GST antibody that is coated onto the 96-well plate. Adequate binding to the plate can be achieved when: • a. 100 uL per well of 5 ug/mL goat anti-GST polyclonal antibody (Pierce) in PBS is added to a polystyrene 96-well plate (e.g., Num Polysorb) at 4° C. for 12 hours. • b. The plate is blocked by addition of 200 uL per well of PBS/BSA for 2 hours at 4° C. • c. The plate is washed 3 times with PBS. • d. 50 uL per well of 5 ug/mL GST/PDZ fusion protein) or, as a negative control, GST polypeptide alone (i.e. not a fusion protein) in PBS/BSA is added to the plate for 2 hours at 4° C. • e. The plate is again washed 3 times with PBS.
(§2) (2) Biotinylated PL peptides are allowed to react with the surface by addition of 50 uL per well of 20 uM solution of the biotinylated peptide in PBS/BSA for 10 minutes at 4° C., followed by an additional 20 minute incubation at 25° C.
(§3) (3) The binding of the biotinylated peptide to the GST/PDZ fusion protein surface can be detected using a variety of methods and detectors known to one of skill in the art. In one embodiment, 100 uL per well of 0.5 ug/mL streptavidin-horse radish peroxidase (HRP) conjugate dissolved in BSA/PBS is added and allowed to react for 20 minutes at 4° C. The plate is then washed 5 times with 50 mM Tris pH 8.0 containing 0.2% Tween 20, and developed by addition of 100 uL per well of HRP-substrate solution (TMB, Dako) for 20 minutes at room temperature (RT). The reaction of the HRP and its substrate is terminated by addition of 100 uL per well of 1M sulfuric acid, and the absorbance of each well of the plate is read at 450 nm.
(§4) (4) Specific binding of a PL peptide and a PDZ domain polypeptide is determined by comparing the signal from the well(s) in which the PL peptide and PDZ domain polypeptide are combined, with the background signal(s). The background signal is the signal found in the negative control(s). Typically a specific or selective reaction will be at least twice background signal, more typically more than 5 times background, and most typically 10 or more times the background signal. In addition, a statistically significant reaction will involve multiple measurements of the reaction with the signal and the background differing by at least two standard errors, more typically four standard errors, and most typically six or more standard errors. Correspondingly, a statistical test (e.g. a T-test) comparing repeated measurements of the signal with-repeated measurements of the background will result in a p-value<0.05, more typically a p-value<0.01, and most typically a p-value<0.001 or less. As noted, in an embodiment of the “G” assay, the signal from binding of a given PL peptide to immobilized (surface bound) GST polypeptide alone is one suitable negative control (sometimes referred to as “B 1”). Because all measurement are done in multiples (i.e. at least duplicate) the arithmetic mean (or, equivalently, average.) of several measurements is used in determining the binding, and the standard error of the mean is used in determining the probable error in the measurement of the binding. The standard error of the mean of N measurements equals the square root of the following: the sum of the squares of the difference between each measurement and the mean, divided by the product of (N) and (N−1). Thus, in one embodiment, specific binding of the PDZ protein to the platebound peptide is determined by comparing the mean signal (“mean S”) and standard error of the signal (“SE”) for a particular PL-PDZ combination with the mean B1. […]

SITAC-18 domain 2 = molecular target: T2, SITAC-18 domain 2 (Homo sapiens, UniProt Q9H190)
T2 construct: made in house; host or cells: E. coli (DH5alpha, BL21 or JM109)
T2 sequence (Q9H190 with tags, fused parts or gaps): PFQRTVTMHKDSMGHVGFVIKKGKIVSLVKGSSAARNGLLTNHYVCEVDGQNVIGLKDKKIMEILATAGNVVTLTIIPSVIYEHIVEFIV
Experimental: as §1, §2, §3, §4

KIAA0382 domain 1 = molecular target: T3, KIAA0382 domain 1 (Homo sapiens, UniProt Q9NZN5)
T3 construct: made in house; host or cells: E. coli (DH5alpha, BL21 or JM109), vector pGEX-3X
T3 sequence (Q9NZN5 with tags, fused parts or gaps): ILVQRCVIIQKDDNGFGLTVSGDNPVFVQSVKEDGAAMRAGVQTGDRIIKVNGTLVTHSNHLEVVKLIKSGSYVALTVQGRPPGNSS
Experimental: as §1, §2, §3, §4

## 20 mer peptide corresponding to the C-terminus of HPV16 E6 (PDZ ligand), biotinylated in binding assays; ends SSRTRRETQL (SEQ ID NO: 13) [HPV E6 #16]
Magi2 domain 5; A450 nm
  Ave OD: 0.651
Magi2 domain 5; vs GST only well
  OD S/N: 3.93
SITAC-18 domain 2; A450 nm
  Ave OD: 0.484
SITAC-18 domain 2; vs GST only well
  OD S/N: 2.46
KIAA0382 domain 1; A450 nm
  Ave OD: 0.712 and 0.6995
KIAA0382 domain 1; vs GST only well
  OD S/N: 3.61 and 2.66
